# According to patent US8741659B2, “Composition for measuring the binding affinity between nucleic acid and test substance, and use thereof” (Osaka University, priority 2007, dated 2014):
# How the values were obtained:
# RRE = assay: Fluorescence titration / evaluation of binding with RRE; set-up: species or system HIV-1
# Experimental: In this Example, binding between RRE and X2S was evaluated by a method identical to the method in Example 2.
# The […] of RRE is shown in SEQ ID NO: 8. […] RRE was purchased from Hokkaido System Science Co., Ltd.
# Firstly, the X2S solution obtained in Example 1 was diluted with a cacodylate buffer solution (sodium cacodylate: 10 mM, pH 7.0; NaCl: 100 mM), so that a concentration of X2S became 2 μM. To the 2-μM X2S solution thus obtained, RRE was added in steps at 0 μM, 1 μM, 2 μM, 3 μM, 4 μM, 5 μM, 6 μM, and 8 μM. Further, a fluorescence intensity of the 2-μM X2S solution was measured at each concentration. The fluorescence intensity was measured in the same manner as in Example 2.
# FIG. 7 is a view illustrating a result of evaluation of binding between X2S and RRE. In FIG. 7, the horizontal axis represents the fluorescence wavelength, whereas the vertical axis represents the fluorescence intensity. […] Other figures include such arrows for results of measurements of fluorescence intensities.
# FIG. 8 is a view plotting the fluorescence intensities at a measured wavelength of 453 nm shown in the result illustrated in FIG. 7. The horizontal axis represents the concentration of RRE, whereas the vertical axis represents the fluorescence intensity.
# Then, changes in fluorescence intensities were observed.
# Firstly, X2S, X2S(3), X2S(4), X2S(5), X2S(2-Me), and 3,6-X2S(2) were respectively mixed with cacodylate buffer solutions (sodium cacodylate: 10 mM, pH 7.0; NaCl: 100 mM) each at 1.0 μM, so that solutions of the respective compounds were obtained. RRE used in this Example was the same as that used in Example 4. RRE was added to each of the solutions of the respective compounds in steps at 0.0 μM, 0.2 μM, 0.4 μM, 0.8 μM, and 1.0 μM.
# Each of the solutions to which RRE was added was irradiated with light, and a fluorescence intensity was measured. A device used for measuring the fluorescence intensity was the same as that used in Example 13. A variation in a slit width was also the same as that in Example 14.
# FIG. 39 is a graph illustrating a relationship between a concentration of RRE added and a fluorescence intensity of each compound. Further, FIG. 39 is also a view plotting the fluorescence intensities of the respective fluorescence peaks shown in the results illustrated in FIGS. 33 to 38. FIG. 40 is a view plotting residual fluorescence intensities (%) which were obtained based on the results shown in FIGS. 33 to 38, assuming that the fluorescence intensities of the respective fluorescence peaks observed at a concentration of 0.0 μM of RRE were 100%. In each of FIGS. 39 and 40, the horizontal axis represents the concentration of the RNA. In FIG. 39, the vertical axis represents the fluorescence intensity. In FIG. 40, the vertical axis represents the residual fluorescence intensity (%).
# FIG. 41 is a view plotting values obtained by dividing (i) the residual fluorescence intensities (%) obtained in the case involving use of the double strand RNA by (ii) the residual fluorescence intensities (%) obtained in the case involving use of RRE. That is, FIG. 41 is a view plotting values obtained by dividing (i) the residual fluorescence intensity (%) shown in FIG. 32 by (ii) the residual fluorescence intensities (%) shown in FIG. 40. FIG. 42 is a view plotting values obtained by subtracting (i) the residual fluorescence intensities (%) obtained in the case involving use of RRE from (ii) the residual fluorescence intensities (%) obtained in the case involving use of the double strand RNA. That is, FIG. 42 is a view plotting values obtained by subtracting (i) the residual fluorescence intensities (%) shown in FIG. 40 from (ii) the residual fluorescence intensities (%) shown in FIG. 32.
# In this Example, 1-Pyrenemethanamide, hydrochloride was caused to bind to a double strand RNA or RRE. Then, a change in a fluorescence intensity was observed. […]
# [1] = tested on: single strand RNA (ssRNA), SEQ ID NO: 7; assay: Binding between X2S and single strand RNA
# Experimental: In this Example, binding between X2S and a single strand RNA (hereinafter, referred to as “ssRNA”) was evaluated. Specifically, the evaluation was performed in the same manner as that described in Example 2. However, the evaluation performed in this Example differed from that performed in Example 2 in the following points: Instead of the double strand RNA, an ssRNA was used; The ssRNA was added in steps at 0 μM, 1 μM, 2 μM, 3 μM, 4 μM, 5 μM, 6 μM, 7 μM, and 8 μM; The ssRNA was purchased from: Hokkaido System Science Co., Ltd. The sequence of the ssRNA is shown in SEQ ID NO: 7.
# FIG. 18 is a view illustrating the result of the evaluation of binding between X2S and the ssRNA. The horizontal axis represents the fluorescence wavelength, whereas the vertical axis represents the fluorescence intensity.
structure (smiles),measurement,setting,value
"NCCOc1ccc2oc3ccc(OCCN)cc3c(=O)c2c1 [X2S, 2,7-bis(2-aminoethoxy)xanthen-9-one]",reduction of fluorescence intensity (residual fluorescence intensity) on binding RRE,"RRE; 1.0 μM compound, RRE 0.0-1.0 μM",particularly high reduction rates
same,fluorescence of X2S on binding to RRE,"RRE; 2 μM X2S, RRE 0-8 μM, 453 nm",fluorescence of X2S is quenched
same,difference in quenching efficiency between RRE and double strand RNA,"RRE; FIGS. 41 and 42, 1.0 μM compound",greatest
same,amount of change of fluorescence intensity,[1]; 0 μM versus 8 μM ssRNA,approximately 50%
same,binding to ssRNA,[1]; ssRNA 0-8 μM,binds to an ssRNA
